Laboratory results from PubChem BioAssay AID365 (MTDP, 2006).
Activity calls are given as the source filed them. The rule behind the calls is not given here.

biological target: Ribonuclease HI (Escherichia coli (strain K12)) (UniProt P0A7Y4); experiment: E. coli RNase HI inhibitors, dose response, biochemical, FRET RNA/DNA duplex cleavage (AID 365); conditions: E. coli RNase H, FRET RNA/DNA cleavage fluorescence
Sequence (P0A7Y4 whole entry, looked up): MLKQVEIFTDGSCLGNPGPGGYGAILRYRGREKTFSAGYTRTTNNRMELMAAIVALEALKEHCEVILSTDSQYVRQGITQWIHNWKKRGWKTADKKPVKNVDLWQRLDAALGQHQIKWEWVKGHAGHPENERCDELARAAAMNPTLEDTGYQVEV

| SMILES | IC50 |
| --- | --- |
| Cc1sc2nc(-c3ccc([N+](=O)[O-])cc3)[nH]c(=O)c2c1C | 1.6 µM |
| O=C(CSc1nc2ccccc2s1)c1sc2sc3ccccc3[n+]2c1[O-] | 0.6 µM |
| O=C1NC(=S)N(c2ccc(Cl)cc2)C(=O)/C1=C/c1ccc(Br)o1 | 1.7 µM |
| N#Cc1c(N)nc(SCC(=O)c2ccc(O)c(O)c2)c(C#N)c1-c1ccc(O)cc1 | 1.7 µM |
| Ic1ccc2c(c1)N(c1ccccc1)c1cc(N=c3ccc4nc5ccc(I)cc5n(-c5ccccc5)c-4c3)ccc1N2 | 4.1 µM |
| COc1ccc(C2COc3cc(O)c(O)cc3C2)cc1 (stereo not drawn) | inactive |
| FC(F)(F)c1nc2ccc(SSc3ccc4nc(C(F)(F)F)[nH]c4c3)cc2[nH]1 | 8 µM |
| Cc1sc(NC(=O)Cc2ccccc2)c(C(N)=O)c1C | inactive |
| C=CCN1C(=O)/C(=C\c2ccc([N+](=O)[O-])o2)C(=O)NC1=S | 72 µM |
| COC(=O)c1c(N)sc(C(=O)Nc2ccc(OC)cc2)c1C | inactive |
| Cc1cc(=O)c2c(O)c3c(O)cc(O)c4c5c(O)cc(O)c6c(O)c7c(=O)cc(C)c8c1c2c(c34)c(c65)c78 | inactive |
| C[N+](C)=c1ccc2nc3c(cc(Nc4ccccc4)c4ccccc43)oc-2c1 | 2.8 µM |
| O=C(O)c1c(Br)c(Br)c(Br)c(Br)c1C1c2ccc(O)cc2Oc2cc(O)ccc21 | 8 µM |
| O=C1C=C/C(=N\S(=O)(=O)c2cc(Cl)ccc2Cl)C=C1Cl | 7 µM |
| CCCc1cc(=O)oc2c3c(c4c(c12)OC(C)(C)C=C4)O[C@H](C)[C@@H](C)[C@H]3OC | inactive |
| Cc1cccc(NCC(=O)N/N=C\c2c(Br)cc(Br)c(O)c2Br)c1 | inactive |
| CC(C)=CCC1=C(O)[C@@](O)(CC=C(C)C)C(=O)C(C(=O)CC(C)C)=C1O | inactive |
| O=C1C=C(NCCc2cc(Br)c(O)c(Br)c2)C(=O)c2ncccc21 | inactive |
| Cc1ccc(C)n1-c1ccc(SCC(=O)O)cc1 | > 100 µM (inactive) |
| CC(C)=Cc1cc(CCC/C(C)=C/Cc2c(O)cc(C)c(C(=O)O)c2O)co1 | inactive |
| CC(C)c1ccc(O)c(=O)cc1 | > 100 µM (inactive) |
| COc1ccc(/C=C\C(=O)c2c(-c3ccccc3)c3cc(C)ccc3[nH]c2=O)c(OC)c1 | 9 µM |
| Oc1cc(O)c2cc(O)c(-c3ccc(O)c(O)c3)[o+]c2c1 | 0.4 µM |
| Cc1ccc(-c2n[nH]c(=S)n2/N=C/c2ccc(O)c(O)c2O)cc1 | inactive |

| SMILES | IC50 |
| --- | --- |
| C[C@@H]1[C@H](O)c2c(c3c(c4c(-c5ccccc5)cc(=O)oc24)OC(C)(C)C=C3)O[C@@H]1C | 8 µM |
| CCOc1ccc(N2C(=O)/C(=C/c3ccc(Br)o3)C(=O)NC2=S)cc1 | 0.8 µM |
| O=C1NN(c2ccc(I)cc2)C(=O)/C1=C\c1ccc(O)c(O)c1 | 3.5 µM |
| Nc1c(S(=O)(=O)O)cc(Nc2cccc(S(N)(=O)=O)c2)c2c1C(=O)c1ccccc1C2=O | inactive |
| O=C1c2ccccc2C(=O)N1c1ccc(-c2nc3ccc(N4C(=O)c5ccccc5C4=O)cc3[nH]2)cc1 | 5 µM |
| Oc1ccc(/C=N/Nc2nncc(-c3ccccc3)n2)c(O)c1O | 7 µM |
| CC(C)c1ccc(O)c(O)c(=O)c1 (tested in a mixture with another compound) | inactive |
| O=C1c2ccccc2C(=O)c2c(NC3CCCCC3)ccc(Nc3ccc(S(=O)(=O)O)cc3)c21 | inactive |
| CC(=O)O[C@H](C)[C@@H]1C2=C(C(=O)C[C@]1(C)O)C(=O)c1c(ccc(-c3ccc4c(c3O)C(=O)C3=C(C4=O)[C@@H]([C@@H](C)OC(C)=O)[C@@](C)(O)CC3=O)c1O)C2=O | > 100 µM (inactive) |
| Cc1cc(I)c2c(c1)C1C=CCC1C(C(=O)O)N2 (stereo not drawn) | inactive |
| CN(C)S(=O)(=O)c1ccc(Nc2ccc(O)c3c2C(=O)c2c([N+](=O)[O-])ccc(O)c2C3=O)cc1 | 8 µM |
| Cc1sc(NC(=O)C2CC3CCC2C3)c(C(N)=O)c1C (stereo not drawn) | inactive |
| O=C1NC(=S)N(c2ccccc2F)C(=O)C1=Cc1ccco1 | 1.1 µM |
| COc1cccc(-c2nc3cc(NC(=O)/C=C\c4ccccc4)ccc3o2)c1 | 3.7 µM |
| Cc1ccc(S(=O)(=O)N=C2C=CC(=O)C=C2)c(C)c1 | 7.8 µM |
| O=C1c2ccccc2C(=O)c2c1cc(O)c(O)c2O | inactive |
| COC(=O)c1cc2cc3cc4cc(CC(=O)O)c(C(=O)/C=C(\O)c5ccccc5O)c(OC)c4c(OC)c3c(O)c2c(=O)o1 | inactive |
| O=C(Nc1ccc(N2CCN(C(=O)c3ccccc3)CC2)cc1)c1ccc(-c2ccccc2)cc1 | 3.8 µM |
| O=C1C(Cl)=C(NC(=O)c2ccccc2)C(=O)C(Cl)=C1NC(=O)c1ccccc1 | > 100 µM (inactive) |
| Nc1ccc(N=Nc2ccc(-c3ccc(O)cc3)cc2)c2ccc(S(=O)(=O)O)cc12 | inactive |
| CN1CC(O)C2=CC(=O)C(=O)C=C21 (stereo not drawn) | > 100 µM (inactive) |
| Oc1ccc2ccccc2c1C=NCc1c(O)ccc2ccccc12 | inactive |
| Cc1cc(Cl)ccc1OCC(=O)Nc1sc(C)c(C)c1C(N)=O | 1.2 µM |
| CCOC(=O)Oc1c(OC)cc(C(=O)O[C@@H]2C[C@@H]3CN4CCc5c([nH]c6cc(OC)ccc56)[C@H]4C[C@@H]3[C@H](C(=O)OC)[C@H]2OC)cc1OC | > 100 µM (inactive) |
